Laboratory results: patent publication US20130158014A1, “METHOD FOR TREATING DISEASES ASSOCIATED WITH ALTERATIONS IN CELLULAR INTEGRITY USING RHO KINASE INHIBITOR COMPOUNDS” (priority 2008, published 2013)

Columns and labels:
[1] = system: ova-sensitized, ova-challenged mice; assay: Mouse ovalbumin sensitization model: eosinophils in BALF; assay type: in vivo
Description: (§1) Male BALB/c mice were ordered from Charles River Laboratories (Raleigh, N.C.). The animals were approximately 19 to 21 grams at time of receipt. Upon arrival, the animals were randomized into groups of five males per cage and assigned to a dosing group. Animals were quarantined for 7 days under test conditions. They were observed daily for general health status and ability to adapt to the water bottles. Animals were sensitized on day 0 and 14 of study by an intraperitoneal injection with 20 μg of ovalbumin (ova) and 2.0 mg aluminum hydroxide (alum) which initiates the development of a specific T-helper (Th) cells type 2 resulting in asthmatic animals (denoted as Ova in the figures). One group of animals received an injection of saline to use as control animals (denoted as normal in the figures). All animals were challenged with aerosolized 1% ova once daily for 25 minutes on days 28, 29, and 30 (Zosky, et al. Respiratory Research. 2004; 5:15). Aerosol challenge consists of using an Aerogen Aeroneb nebulizer and controller with a particle size of 4-6 μm mass median aerodynamic diameter (MMAD) with a distribution of 400 μl per minute. This aerosol challenge is necessary to target the Th2-driven allergic inflammation in the lower airways. […]
(§2) Bronchoalveolar lavage fluid (BALF) was collected by infusing 3.0 ml of saline with 10% fetal calf serum into the lungs via the trachea and then withdrawing the fluid. The total amount of cells/ml of BALF fluid was determined via manual cell count on hemocytometer. The BALF was centrifuged, supernatant removed and analyzed for cytokine concentrations as described below, and cell pellet reconstituted in 500 μL of fluid. […] Following Hema3 stain, relative percentages of individual leukocytes were determined on a 200 cell count for each sample. The final concentration of individual leukocyte cell types per ml of BALF was determined by multiplication of the relative percentage of individual leukocytes with the total amount of cells/ml of BALF fluid.

[2] = system: ova-sensitized, ova-challenged mice; assay: Prevention of airway hyperreactivity (Penh, methacholine) in mouse ovalbumin model; assay type: in vivo
Description: The anti-inflammatory dosing paradigm consists of dosing the animals once a day starting on day 27 and finishing on either day 30 or 31 (1 hr prior to the aerosolized ovalbumin challenges on days 28 to 30) but not on day 32 when hyperreactivity evaluation occurs. […] Exposure to the methacholine doses consisted of a 3 minute period during which a nebulizer was aerosolizing the methacholine and an additional 3 minute period following the cessation of nebulization. […] Enhanced pause (Penh), a unitless index of airway hyperreactivity, is derived from the expiratory side of the respiratory waveform measured via the plethysmograph and is used as an indirect measure of airway resistance and hyperreactivity. […] Following the methacholine dose response, BALF was collected and all animals were anesthetized, bled and euthanized. […] The Penh value at each of the dose levels of methacholine represents the 6-minute average response. Change from baseline (CFB) in Penh was calculated at each methacholine dose and the area under the curve (AUC) for these CFB values was calculated using the trapezoidal rule. This same approach was applied for each mouse across multiple experiments. […] Data from equal experimental conditions across experiments performed on different days were pooled for statistical analysis and data reporting. […] A random intercept for each experiment was assumed to account for possible similarities of the results obtained from a given experiment (i.e., as a “blocking effect”). […] For FIG. 9, linear AUC values from compound treated mice were reported as a percent of linear AUC values from vehicle-treated ovalbumin-sensitized/ovalbumin-challenged (asthmatic) mice.

LPS-challenged mice [3] = assay: LPS-induced neutrophilia assay; assay type: in vivo, mouse; settings: intratracheal 0.5-50 μmol/kg one hour prior to LPS challenge; BALF four hours after; FIG. 12
Description: (§3) Male BALB/c mice, approximately 19 to 21 grams, were ordered from Charles River Laboratories (Raleigh, N.C.). All animals were challenged with aerosolized LPS (10 μg/ml) for 25 minutes on study day 0. LPS aerosol was generated using an Aerogen Aeroneb nebulizer and controller providing a flow of 400 μl/min and a particle size of 2-4 μm MMAD. Rolipram was administered i.p at 20 mg/kg. […] Total cell counts were determined using the Coulter Counter. For differential evaluations, BALF was centrifuged and cytospin slides prepared and stained […]. Manual leukocyte counts were then completed on 200 cells. The final concentration of individual leukocyte cell types per ml of BALF was determined by multiplication of the relative percentage of individual leukocytes with the total amount of cells/ml of BALF fluid. The concentration of IL-1β in the BALF samples was determined using commercially available Bio-plex kits (Bio-Rad).

LPS-challenged mice [4] = assay: LPS-induced cytokine production assay (IL-1β in BALF); assay type: in vivo, mouse; settings: intratracheal, one hour prior to LPS challenge; BALF four hours after; FIG. 13
Description: as §3

[5] = Rat oral pharmacokinetics (plasma); assay type: in vivo; settings: rat oral PK, mean n = 3 rats, 20-30 μmmol/kg
Description: Plasma (EDTA K2 anticoagulant) was collected from male, cannulated, CD Sprague Dawley rats to determine the pharmacokinetics of formulations containing compound inhibitors of Rho kinase. Each animal was dosed orally with a 4 ml/kg solution or suspension of each test compound in 10 mM acetate buffered saline, pH 4.5 at a final concentration range of 20-30 μmmol/kg. Blood was collected at 0.25, 0.5, 1, 2, 4, 6, 8, and 24 hours. Plasma samples were assayed for the concentration of the test compound using an on-line, solid phase extraction LC/MS/MS analysis system.
Samples were analyzed on a QSTAR Elite, hybrid quadrupole time-of-flight mass spectrometer (Applied Biosystems, Framingham, Mass.) coupled with a Symbiosis Pharma integrated, on-line SPE-HPLC system (Spark Holland Inc., Plainsboro, N.J.). Analyst QS 2.0 software was used for instrument control, data acquisition and processing. […] Mobile Phase A consisted of 0.1% ammonium hydroxide in water and Mobile Phase B consisted of 0.1% formic acid in acetonitrile. Pharmacokinetic analyses were performed using WinNonlin software version 5.2 (Pharsight Corporation, Mountain View, Calif.).
As determined from the plasma concentration versus time curves, the time to peak and peak exposure are represented by the values Tmax and Cmax, respectively. The AUC values (nM*hr) shown were calculated as the areas under the plasma concentration versus time curves from time zero through the time of the last observable value and represent the total exposure of the compound over the course of the study. Half-life values or the amount of time required for the plasma levels of the compound to decline to half the initial value are represented as t1/2.

[6] = system: ova-sensitized, ova-challenged mice; assay: Mouse ovalbumin sensitization model: cytokines (IL-5, Eotaxin, IL-13) in BALF; assay type: in vivo; settings: oral on days 27 to 31
Description: as §1, with “5:15).” for “5:15). Aerosol challenge consists of using an Aerogen Aeroneb nebulizer and controller with a particle size of 4-6 μm mass median aerodynamic diameter (MMAD) with a distribution of 400 μl per minute. This aerosol challenge is necessary to target the Th2-driven allergic inflammation in the lower airways.”
as §2
The concentrations of cytokines in the BALF samples were determined using commercially available Bio-plex kits (Bio-Rad) for the detection of mouse IL-5, IL-13, and Eotaxin. The analysis of cytokine levels was measured using the Bio-Plex 200 (Bio-Rad) system according to the manufacturer's instructions.

murine eosinophils = assay: Murine eosinophil chemotaxis (eotaxin-induced); assay type: cell-based, mouse; settings: 10 nM eotaxin challenge, one hour; FIG. 10
Description: Bronchoalveolar lavage was collected from ovalbumin sensitized and challenged mice in a volume of 2.5 mL lavage buffer. The lavage buffer was 0.9% saline with 10% fetal bovine serum. The pooled lavages were maintained on ice until use. The murine eosinophils were isolated using MACS cell separation (Miltenyi Biotech) by depletion of B cells and T cells by positive selection following incubation with antibody conjugated magnetic beads specific for CD45-R (B220) and CD90 (Thy 1.2), which bind B cells and T cells, respectively.
Eosinophil chemotaxis was assessed using a modified Boyden Chamber (Neuroprobe, 96-well) with a 5 μm pore membrane. The ability of the tested compounds to block chemotaxis induced by a 10 nM eotaxin challenge (mouse) or 1 nM eotaxin challenge (human) during one hour incubation at 37° C. with 5% CO2 was assessed. Chemotaxis was quantified via microscopy by counting the number of migrated cells in at least 3 view fields per treatment. […] FIG. 11 demonstates that chemotaxis was induced by eotaxin in human eosinophils.

human eosinophils = assay: Human eosinophil chemotaxis (eotaxin-induced); assay type: cell-based; settings: 1 nM eotaxin challenge, one hour; FIG. 11
Text: Peripheral blood from healthy human volunteers was collected and the PMNs separated via Ficoll-paque density centrifugation followed by hypotonic lysis of the red blood cells. Subsequently, the human eosinophils were isolated from the cell suspension via StemCell Technologies Human Eosinophil Enrichment kit (Cat. No 19256) according to the manufacturer's recommendations. Briefly, unwanted cells were specifically labeled with dextran-coated magnetic nanoparticles using bispecific Tetrameric Antibody Complexes (TAC) directed against cell surface antigens on human blood cells: […] The unwanted cells are then separated from the unlabelled eosinophils using the EasySep® magnetic isolation procedure. […] FIG. 11 demonstates that chemotaxis was induced by eotaxin in human eosinophils.

For `CS(=O)(=O)Nc1cccc(CN2CCC[C@H](Nc3ccc4[nH]ncc4c3)C2)c1` [Compound 1.091], the “eosinophils in BALF” value ([1]; dosed i.t. once a day, day 27 to day 30, FIG. 5) was “reduction of eosinophils”, the airway hyperreactivity ([2]; intratracheal once a day, days 27 to 30, FIG. 9) was “prevention of airway hyperreactivity” and the pulmonary neutrophilia influx (LPS-challenged mice [3]) was “significant reduction”. The “IL-1β in BALF” value (LPS-challenged mice [4]) was “reduction”, the “AUC (0-last)” value [5] was “BLQ” and the Cmax [5] was “BLQ”. The Tmax [5] was “BLQ”, the Vz_F [5] was “BLQ” and the t½ [5] was “BLQ”.

In the case of `CS(=O)(=O)Nc1cccc(CN2CC[C@@H](Nc3cccc4cnccc34)C2)c1` [Compound 2.038], the “eosinophils per ml of BALF” value ([1]; dosed orally once a day, day 27 to day 31, FIG. 4) is reported as “reduced”, the “concentration of IL-5 in BALF” value ([6]; FIG. 6) is reported as “reduced levels” and the “concentration of Eotaxin in BALF” value ([6]; FIG. 7) is reported as “reduced levels”. For the same compound, the “concentration of IL-13 in BALF” value ([6]; FIG. 8) was “reduced levels”, the “airway hyperreactivity to methacholine on Day 32” value ([2]; oral 15 μMol/kg once a day, days 27 to 31) was “prevention of airway hyperreactivity” and the “murine eosinophil chemotactic response” value (murine eosinophils) was “inhibited”. The “human eosinophil chemotactic response” value (human eosinophils) was “inhibited”.
